pEC50: −log10 of the molar value. In brackets after ≈: the same amount, converted by molar mass. Where two headings read alike, the source gives them in different places. Starred links: 1 amine or outer side, 2 acyl side, 3 side chain; linkers in the order of their positions; H or OH if unused. Positions of bridges follow the written chain, without caps; N, C: chain ends. Non-standard residues stand in square brackets, D forms with d. Residues, ends and D or L forms follow the SMILES beside them. Groups on a side chain read outwards from the residue. *: point of attachment. X2 = O=C(O)CCCCCCCCCCCCCCCCC(=O)N[C@@H](CCC(=O)NCOCCOCC(=O)NCOCCOCC(=O)*)C(=O)O; C20 diacid = O=C(O)CCCCCCCCCCCCCCCCCCC(=O)*; γGlu = O=C(O)[C@H](CCC(=O)[*:2])N[*:1]; Palmitoyl = CCCCCCCCCCCCCCCC(=O)*; AEEA = NCCOCCOCC(=O)O
What was measured:
[1] = target: human amylin 3 receptor (hAMY3R) (Homo sapiens, UniProt O60896+P30988); assay: cAMP accumulation functional assay in HEK293-CNG cells expressing hAMY3R; type: cell-based; conditions: for pEC50: pEC50 hAMY3R 0.1% HSA, 0.1% HSA
Sequence of human amylin 3 receptor (hAMY3R) (O60896 24-148, one chain of several): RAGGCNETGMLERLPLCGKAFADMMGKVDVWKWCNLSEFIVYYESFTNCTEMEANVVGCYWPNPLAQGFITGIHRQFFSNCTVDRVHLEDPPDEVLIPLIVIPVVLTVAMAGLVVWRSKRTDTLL
Experimental: (§1) In the presence of the non-specific cAMP/cGMP phosphodiesterase inhibitor 3-isobutyl-1-methylxanthine (IBMX), accumulating cAMP can be measured in vitro using common detection methods. Thus, it is possible to estimate an in vitro potency (pEC50) for peptides activating each of these receptors using fit dose-response curves for cAMP accumulation.
(§2) Cells were carried in growth media for no more than 10 passages prior to testing.
(§3) Peptides were serially diluted in the same buffer as above for each given assay condition. Two assay control solutions consisting of 50 mcM forskolin (cAMP system maximum) or assay buffer only (cAMP system minimum) were also prepared in the appropriate stimulation buffers. Five microliters of each peptide-concentration, or assay control was added to triplicate wells and incubated for thirty minutes at room temperature. During this incubation step a 4× europium labelled cAMP tracer solution and a 4× Ulight®-anti-cAMP solution (consisting of an anti-cAMP monoclonal antibody labelled with Ulight™ dye) was prepared according to the manufacturer's protocol (PerkinElmer LANCE Ultra cAMP kit). Following this incubation, 5 mcL europium labelled cAMP and 5 mcL Ulight anti-cAMP antibody was added to wells. The plate was covered with an adhesive cover to prevent evaporation and incubated for 60 minutes at room temperature in the dark. Plates were read on an Envision fluorescent plate reader (PerkinElmer).
(§4) Test values were first normalized to the forskolin induced cAMP system maximum and system minimum averaged values in Excel using the formula: (test value−system minavg)/(system maxavg−system minavg)*100. Normalized test values represent a baseline corrected percentage of the system maximum cAMP response induced by forskolin. Normalized data was analyzed from triplicate tests and used to estimate the EC50 for each peptide on each receptor. Data was fit in GraphPad Prism software (v7.04) using a 4-parameter logistic curve model: Y=Bottom+(Top−Bottom)/(1+10^((Log EC50−X))). The Hill slope was constrained to 1.0. EC50 values were converted to pEC50 values using the formula: pEC50=−Log (EC50).

in vivo = assay: in vivo; design: species or system Sprague-Dawley rats; conditions: rat, iv, 0.033 mg/kg
In short: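 Male Sprague-Dawley rats, non-fasted (n=3), given peptide in saline as 1-h IV or SC infusion at 0.033 mg/kg, or SC bolus at 0.3 mg/kg; jugular blood to 48 h into K2EDTA plus protease inhibitors. Plasma extracted by precipitation or WCX solid-phase extraction, quantified by UPLC-MS/MS against standards in matching rat plasma.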

[2] = target: T1, human calcitonin receptor (hCTR) (Homo sapiens, UniProt P30988); assay: cAMP accumulation functional assay in HEK293-CNG cells expressing hCTR; type: cell-based; conditions: for pEC50: hCTR 0.1% HSA, 0.1% HSA
T1 sequence (P30988 25-474): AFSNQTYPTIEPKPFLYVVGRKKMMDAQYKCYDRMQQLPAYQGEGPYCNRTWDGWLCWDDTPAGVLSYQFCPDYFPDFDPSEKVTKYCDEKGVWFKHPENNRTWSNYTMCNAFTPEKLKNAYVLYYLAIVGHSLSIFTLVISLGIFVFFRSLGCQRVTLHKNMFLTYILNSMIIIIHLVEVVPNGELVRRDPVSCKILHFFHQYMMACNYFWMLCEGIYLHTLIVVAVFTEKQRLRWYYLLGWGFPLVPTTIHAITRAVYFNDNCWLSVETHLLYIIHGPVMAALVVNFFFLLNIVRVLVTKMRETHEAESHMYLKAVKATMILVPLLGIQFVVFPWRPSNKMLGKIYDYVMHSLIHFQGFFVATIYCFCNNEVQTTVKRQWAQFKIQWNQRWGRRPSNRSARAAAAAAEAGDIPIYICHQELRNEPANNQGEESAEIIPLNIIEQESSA
Experimental: as §1, §2, §3, §4

[3] = Acute food intake inhibition after SC bolus injection (BioDAQ); conditions: Long Evans rats on 45% high fat diet
[4] = Solubility of amylin analog polypeptides (visual inspection, room temperature); type: physicochemical; conditions: Solubility
Experimental: The analog polypeptides described herein were tested for solubility in saline 20% DMSO in water (i.e., bioassay buffer) or in aqueous (DI water) at room temperature. Samples were visually inspected for clarity of the sample, any appearance of turbidity or haziness.

[5] = 4% HSA, read-out: pEC50 hAMY3R 4% HSA (converted)
[6] = hCTR 0% HSA, 0% HSA, read-out: pEC50 hCTR 0% HSA (converted)
[7] = hCTR 4% HSA, 4% HSA, read-out: pEC50 hCTR 4% HSA (converted)

SMILES | EC50 [1, 5] [nM] | pEC50 [1] | Vd (in vivo) [L/kg] | clearance (in vivo) [mL/min/kg] | half-life (in vivo) [h] | EC50 [2, 6] [nM] | pEC50 [2] | EC50 [2, 7] [nM] | Acute Food Intake % Inhibition vs vehicle ([3]; 0-24 hr after acute SC dosing) [%] | Acute Food Intake % Inhibition vs vehicle ([3]; 25-48 hr after acute SC dosing) [%] | solubility [4] [mg/mL] | EC50 ([1]; 0% HSA, read-out: pEC50 hAMY3R 0% HSA (converted)) [nM]
CCCCCCCCCCCCCCCC(=O)N[C@@H](CCC(=O)N[C@@H](CCC(=O)N[C@@H](CCC(=O)N[C@@H](CCC(=O)NCCOCCOCC(=O)NCCOCCOCC(=O)N[C@@H](CCC(=O)NCCCC[C@H](NC(=O)[C@H](CCC(=O)O)NC(=O)[C@H](CC(N)=O)NC(=O)[C@H](C)NC(=O)[C@H](CC(C)C)NC(=O)[C@H](CCCNC(=N)N)NC(=O)[C@H](CCC(N)=O)NC(=O)[C@@H](NC(=O)[C@H](C)NC(=O)[C@@H]1CSSC[C@H](NC(=O)[C@@H](N)CO)C(=O)N[C@@H](CC(N)=O)C(=O)N[C@@H]([C@@H](C)O)C(=O)N[C@@H](CO)C(=O)N[C@@H]([C@@H](C)O)C(=O)N1)[C@@H](C)O)C(=O)N[C@@H](Cc1c[nH]cn1)C(=O)N[C@@H](CCCCN)C(=O)N[C@@H](CO)C(=O)N[C@@H](CO)C(=O)N[C@@H](CC(N)=O)C(=O)N[C@@H](CC(N)=O)C(=O)N[C@@H](Cc1ccccc1)C(=O)NCC(=O)N1CCC[C@H]1C(=O)N[C@H](C(=O)N[C@@H](CC(C)C)C(=O)N1CCC[C@H]1C(=O)N1CCC[C@H]1C(=O)N[C@H](C(=O)N[C@@H](CCCCN)C(=O)N[C@H](C(=O)NCC(=O)N[C@@H](CO)C(=O)N[C@@H](CCC(=O)O)C(=O)N[C@H](C(=O)N[C@@H](Cc1ccc(O)cc1)C(N)=O)[C@@H](C)O)C(C)C)[C@@H](C)O)[C@@H](C)CC)C(=O)O)C(=O)O)C(=O)O)C(=O)O)C(=O)O [Compound A5] (H-SCNTSTCATQRLANEK([γGlu-AEEA-AEEA-γGlu-γGlu-γGlu-γGlu-Palmitoyl])HKSSNNFGPILPPTKVGSETY-NH2; disulfide 2-7; N-terminus assumed) | 0.631 | 10.80 | 0.137 | 0.135 | 15 | 0.0158 | 9.50 | 15.8 | 37 | – | – | –
CC[C@H](C)[C@H](NC(=O)[C@@H]1CCCN1C(=O)CNC(=O)[C@H](Cc1ccccc1)NC(=O)[C@H](CC(N)=O)NC(=O)[C@H](CC(N)=O)NC(=O)[C@H](CO)NC(=O)[C@H](CO)NC(=O)[C@H](CCCCN)NC(=O)[C@H](Cc1c[nH]cn1)NC(=O)[C@H](CC(C)C)NC(=O)[C@H](CCCCNC(=O)COCCOCNC(=O)COCCOCNC(=O)CC[C@H](NC(=O)CCCCCCCCCCCCCCCCC(=O)O)C(=O)O)NC(=O)[C@H](CC(N)=O)NC(=O)[C@H](C)NC(=O)[C@H](CC(C)C)NC(=O)[C@H](CCCNC(=N)N)NC(=O)[C@H](CCC(N)=O)NC(=O)[C@@H](NC(=O)[C@H](C)NC(=O)[C@@H]1CSSC[C@H](NC(=O)[C@@H](N)CO)C(=O)N[C@@H](CC(N)=O)C(=O)N[C@@H]([C@@H](C)O)C(=O)N[C@@H](CO)C(=O)N[C@@H]([C@@H](C)O)C(=O)N1)[C@@H](C)O)C(=O)N[C@@H](CC(C)C)C(=O)N1CCC[C@H]1C(=O)N1CCC[C@H]1C(=O)N[C@H](C(=O)N[C@@H](CCCCN)C(=O)N[C@H](C(=O)NCC(=O)N[C@@H](CO)C(=O)N[C@@H](CCC(=O)O)C(=O)N[C@H](C(=O)N[C@@H](Cc1ccc(O)cc1)C(N)=O)[C@@H](C)O)C(C)C)[C@@H](C)O [Compound A98] (H-SCNTSTCATQRLANK(X2)LHKSSNNFGPILPPTKVGSETY-NH2; disulfide 2-7; N-terminus assumed) | – | – | 0.159 | 0.119 | 17.4 | – | – | – | 23 | 24 | – | –
CCCCCCCCCCCCCCCC(=O)N[C@@H](CCC(=O)N[C@@H](CCC(=O)N[C@@H](CCC(=O)N[C@@H](CCC(=O)NCCCC[C@@H](NC(=O)[C@H](CCC(=O)O)NC(=O)[C@H](CC(N)=O)NC(=O)[C@H](C)NC(=O)[C@H](CC(C)C)NC(=O)[C@H](CCCNC(=N)N)NC(=O)[C@H](CCC(N)=O)NC(=O)[C@@H](NC(=O)[C@H](C)NC(=O)[C@@H]1CSSC[C@H](NC(=O)[C@@H](N)CO)C(=O)N[C@@H](CC(N)=O)C(=O)N[C@@H]([C@@H](C)O)C(=O)N[C@@H](CO)C(=O)N[C@@H]([C@@H](C)O)C(=O)N1)[C@@H](C)O)C(=O)N[C@@H](Cc1c[nH]cn1)C(=O)N[C@@H](CCCCN)C(=O)N[C@@H](CO)C(=O)N[C@@H](CO)C(=O)N[C@@H](CC(N)=O)C(=O)N[C@@H](CC(N)=O)C(=O)N[C@@H](Cc1ccccc1)C(=O)NCC(=O)N1CCC[C@H]1C(=O)N[C@H](C(=O)N[C@@H](CC(C)C)C(=O)N1CCC[C@H]1C(=O)N1CCC[C@H]1C(=O)N[C@H](C(=O)N[C@@H](CCCCN)C(=O)N[C@H](C(=O)NCC(=O)N[C@@H](CO)C(=O)N[C@@H](CCC(=O)O)C(=O)N[C@H](C(=O)N[C@@H](Cc1ccc(O)cc1)C(N)=O)[C@@H](C)O)C(C)C)[C@@H](C)O)[C@@H](C)CC)C(=O)O)C(=O)O)C(=O)O)C(=O)O [Compound A66] (H-SCNTSTCATQRLANE[dK]([γGlu-γGlu-γGlu-γGlu-Palmitoyl])HKSSNNFGPILPPTKVGSETY-NH2; disulfide 2-7) | – | – | 0.194 | 0.259 | 9.59 | – | – | – | – | – | 78.3 (≈ 16.5 mM) | –
CC[C@H](C)[C@H](NC(=O)[C@@H]1CCCN1C(=O)CNC(=O)[C@H](Cc1ccccc1)NC(=O)[C@H](CC(N)=O)NC(=O)[C@H](CC(N)=O)NC(=O)[C@H](CO)NC(=O)[C@H](CO)NC(=O)[C@H](CCCCN)NC(=O)[C@H](Cc1c[nH]cn1)NC(=O)[C@H](CC(C)C)NC(=O)[C@H](CCC(=O)O)NC(=O)[C@H](CC(N)=O)NC(=O)[C@H](C)NC(=O)[C@H](CC(C)C)NC(=O)[C@H](CCCNC(=N)N)NC(=O)[C@H](CCC(N)=O)NC(=O)[C@@H](NC(=O)[C@H](C)NC(=O)[C@@H]1CSSC[C@H](NC(=O)[C@@H](N)CCCCNC(=O)CC[C@H](NC(=O)CC[C@H](NC(=O)COCCOCCNC(=O)COCCOCCNC(=O)CC[C@H](NC(=O)CCCCCCCCCCCCCCCCCCC(=O)O)C(=O)O)C(=O)O)C(=O)O)C(=O)N[C@@H](CC(N)=O)C(=O)N[C@@H]([C@@H](C)O)C(=O)N[C@@H](CO)C(=O)N[C@@H]([C@@H](C)O)C(=O)N1)[C@@H](C)O)C(=O)N[C@@H](CC(C)C)C(=O)N1CCC[C@H]1C(=O)N1CCC[C@H]1C(=O)N[C@H](C(=O)N[C@@H](CCCCN)C(=O)N[C@H](C(=O)NCC(=O)N[C@@H](CO)C(=O)N[C@@H](CCC(=O)O)C(=O)N[C@H](C(=O)N[C@@H](Cc1ccc(O)cc1)C(N)=O)[C@@H](C)O)C(C)C)[C@@H](C)O [Compound A112] (H-K([γGlu-γGlu-AEEA-AEEA-γGlu-C20 diacid])CNTSTCATQRLANELHKSSNNFGPILPPTKVGSETY-NH2; disulfide 2-7) | 10 | 9.30 | 0.0998 | 0.0409 | 32.6 | 0.0126 | 8.50 | 31.6 | – | – | – | 0.00251

Source: patent US12018059B2, “Human amylin analog polypeptides and methods of use” (Intarcia Therapeutics, Inc., priority 2018, dated 2024)
